The text below walks through data of ChEMBL document CHEMBL1201862, “PubChem BioAssay data set” (2004).

Each structure is given as a SMILES string. The source made the active and inactive calls. Some results are limits rather than exact numbers.

The target of experiment [1] is T1, Polyadenylate-binding protein 1 (Homo sapiens, UniProt P11940). The experiment is described as follows: PABP1 MLLE–PAM2 binding inhibitor potency, dose response, biochemical, fluorescence polarization, FITC-PAM2 peptide (AID 602259). It counts as functional. Particulars: read-out: IC50_Mean.
T1 sequence (P11940 whole entry): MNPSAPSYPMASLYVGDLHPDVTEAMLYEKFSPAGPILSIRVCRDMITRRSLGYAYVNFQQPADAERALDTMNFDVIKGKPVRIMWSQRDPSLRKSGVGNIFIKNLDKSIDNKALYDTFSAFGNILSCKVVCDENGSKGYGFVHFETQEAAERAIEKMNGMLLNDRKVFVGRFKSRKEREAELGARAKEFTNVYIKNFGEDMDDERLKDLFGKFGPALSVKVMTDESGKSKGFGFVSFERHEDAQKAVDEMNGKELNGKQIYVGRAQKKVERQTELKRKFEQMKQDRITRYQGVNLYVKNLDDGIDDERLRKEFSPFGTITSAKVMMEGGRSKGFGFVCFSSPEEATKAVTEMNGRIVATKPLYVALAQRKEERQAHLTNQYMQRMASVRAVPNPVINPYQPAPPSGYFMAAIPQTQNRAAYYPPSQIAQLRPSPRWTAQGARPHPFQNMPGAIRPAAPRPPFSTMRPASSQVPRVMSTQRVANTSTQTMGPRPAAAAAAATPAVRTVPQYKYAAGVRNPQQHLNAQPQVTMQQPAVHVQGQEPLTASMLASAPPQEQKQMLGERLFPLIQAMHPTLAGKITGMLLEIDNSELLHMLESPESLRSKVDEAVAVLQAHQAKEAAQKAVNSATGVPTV
In experiment [2] the target is T1, Polyadenylate-binding protein 1. The experiment is described as follows: PABP1 MLLE–PAM2 interaction inhibitors, dose response, miRNA deadenylation inhibitor project, biochemical, fluorescence polarization, Cy5-PAM2 peptide, secondary (AID 602260). The format is functional. Particulars: read-out: IC50_Mean. (In general: In fluorescence polarisation assays a small probe gives low polarisation when free and higher when bound to something large.)

Experiment [3] in a line: Counterscreen for inhibitors of Trypanosoma brucei methionyl tRNA synthetase (MetRS): Luminescence-based cell-based high throughput dose response assay to identify compounds that are cytotoxic to Jurkat human T lymphocyte cells. The format is functional.
Experiment [4] has as its target T2, Methionyl-tRNA synthetase, putative (Trypanosoma brucei brucei, UniProt Q38C91).
T2 sequence (Q38C91 whole entry): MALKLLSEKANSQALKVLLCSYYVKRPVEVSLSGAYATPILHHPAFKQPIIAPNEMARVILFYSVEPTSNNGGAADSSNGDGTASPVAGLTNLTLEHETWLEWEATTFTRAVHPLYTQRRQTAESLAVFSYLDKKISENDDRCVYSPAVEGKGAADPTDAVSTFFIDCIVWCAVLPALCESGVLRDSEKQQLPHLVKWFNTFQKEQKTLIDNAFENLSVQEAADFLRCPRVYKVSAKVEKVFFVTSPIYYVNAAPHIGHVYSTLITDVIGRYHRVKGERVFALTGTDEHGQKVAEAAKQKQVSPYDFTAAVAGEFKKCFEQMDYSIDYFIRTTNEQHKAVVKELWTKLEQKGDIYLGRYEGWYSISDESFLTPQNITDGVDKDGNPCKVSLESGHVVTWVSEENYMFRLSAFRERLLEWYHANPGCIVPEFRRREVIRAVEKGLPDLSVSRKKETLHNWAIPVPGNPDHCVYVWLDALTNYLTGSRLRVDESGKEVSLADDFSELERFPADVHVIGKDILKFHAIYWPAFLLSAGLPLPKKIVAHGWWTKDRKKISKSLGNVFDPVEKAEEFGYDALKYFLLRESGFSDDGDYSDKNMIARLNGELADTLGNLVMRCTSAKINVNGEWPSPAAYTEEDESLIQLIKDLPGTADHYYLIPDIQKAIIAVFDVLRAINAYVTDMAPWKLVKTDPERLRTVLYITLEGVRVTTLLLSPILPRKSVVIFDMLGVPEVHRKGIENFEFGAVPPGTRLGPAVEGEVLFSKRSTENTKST
It counts as functional, Trypanosoma brucei brucei strain 927/4 GUTat10.1.

The target of experiment [5] is T2, Methionyl-tRNA synthetase, putative. The format is functional, Trypanosoma brucei brucei strain 927/4 GUTat10.1. This is another data set of the same source.
The nature of experiment [6]: cells. It counts as functional, cell-based.
Experiment [7] is described as follows: cells. The format is functional, cell-based. This is another data set of the same source.
In experiment [8] the test system is Vero. The experiment is described as follows: host cell cytotoxicity of antiviral hits, dose response, cytotoxicity control for West Nile virus antiviral project, secondary assay (AID 1650). The format is functional. Particulars: Chlorocebus sabaeus.
Experiment [9] is described as follows: cells. It counts as functional.
Experiment [10] can be described thus: microbe, parasite or virus in culture. It counts as functional. Particulars: Mycobacterium tuberculosis.
The target in experiment [11] is T3, Calpain-2 catalytic subunit (Sus scrofa, UniProt P43367).
T3 sequence (P43367 whole entry): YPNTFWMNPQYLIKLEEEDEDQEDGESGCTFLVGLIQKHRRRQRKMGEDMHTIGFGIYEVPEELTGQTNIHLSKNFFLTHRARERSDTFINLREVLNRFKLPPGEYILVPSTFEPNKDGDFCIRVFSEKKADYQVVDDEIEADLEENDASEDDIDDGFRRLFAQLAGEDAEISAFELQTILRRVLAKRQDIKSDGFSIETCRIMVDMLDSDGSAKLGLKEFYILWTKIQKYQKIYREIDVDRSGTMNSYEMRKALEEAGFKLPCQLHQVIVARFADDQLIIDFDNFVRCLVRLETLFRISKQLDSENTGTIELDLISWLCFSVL
The experiment is described as follows: pig calpain II inhibitor potency, dose response, biochemical, fluorogenic peptide substrate (AID 1420). The format is functional.

Experiment [12] can be described thus: LGR2 antagonists, dose response, cell-based, HEK293, CRE-luciferase reporter, cherry pick, set 2 (AID 743343).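 Further: transfected cells were stimulated with diluted bursicon conditioned medium after compound addition.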 It counts as functional.
Experiment [13] in a line: HepG2 cell cytotoxicity, dose response, cytotoxicity control, plate reader, cherry-pick, antagonist series (AID 743416). It counts as functional, cell-based.
A short description of experiment [14]: MC4R antagonists, dose response, counter-screen for LGR2 antagonist project, cell-based, plate reader, cherry pick (AID 743444).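 Further: transfected HEK 293 cells stimulated with alpha-MSH peptide; potency of inhibitors of the alpha-MSH evoked signal.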 It counts as functional. On the technique in general: The purpose of a counterscreen is to sort out artefacts and off-target activity.
Experiment [15] is described as follows: HEK293 cell cytotoxicity, dose response, cytotoxicity control, plate reader, cherry-picked samples (AID 743446). The format is functional, cell-based.
Experiment [16] concerns Vero. The experiment is described as follows: cells. It counts as functional. Particulars: Chlorocebus sabaeus.
The target in experiment [17] is Eukaryotic translation initiation factor 4E (Mus musculus, UniProt P63073). Nature of the experiment: eIF4E–eIF4G protein interaction inhibitors, dose response, biochemical, TR-FRET (AID 855).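 Further: potency for disrupting eIF4E binding to eIF4GI seen as loss of FRET.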 The format is functional. Background: In TR-FRET formats the signal depends on donor and acceptor labels being close together.
Sequence of Eukaryotic translation initiation factor 4E (P63073 whole entry): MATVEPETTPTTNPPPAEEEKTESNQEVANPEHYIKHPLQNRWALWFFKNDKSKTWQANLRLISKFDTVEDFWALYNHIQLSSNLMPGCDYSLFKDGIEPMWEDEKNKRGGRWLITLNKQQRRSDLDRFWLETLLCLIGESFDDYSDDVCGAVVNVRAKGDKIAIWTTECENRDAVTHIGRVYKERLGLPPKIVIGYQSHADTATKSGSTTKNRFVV
Experiment [18] deals with FAD-linked sulfhydryl oxidase ALR (Homo sapiens, UniProt P55789). The experiment is described as follows: inhibitors of human ALR sulfhydryl oxidase, dose response, biochemical, H2O2 detection, luminescence, cherry-pick (AID 493248).
Sequence of FAD-linked sulfhydryl oxidase ALR (P55789 whole entry): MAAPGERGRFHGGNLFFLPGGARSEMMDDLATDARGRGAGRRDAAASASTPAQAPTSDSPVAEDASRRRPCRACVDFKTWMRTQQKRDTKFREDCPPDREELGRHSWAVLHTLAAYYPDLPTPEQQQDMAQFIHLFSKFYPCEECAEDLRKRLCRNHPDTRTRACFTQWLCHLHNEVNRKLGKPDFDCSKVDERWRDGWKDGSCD
Experiment [19] has as its target T4, Leucine aminopeptidase (Plasmodium falciparum 3D7, UniProt Q8IL11).
T4 sequence (Q8IL11 whole entry): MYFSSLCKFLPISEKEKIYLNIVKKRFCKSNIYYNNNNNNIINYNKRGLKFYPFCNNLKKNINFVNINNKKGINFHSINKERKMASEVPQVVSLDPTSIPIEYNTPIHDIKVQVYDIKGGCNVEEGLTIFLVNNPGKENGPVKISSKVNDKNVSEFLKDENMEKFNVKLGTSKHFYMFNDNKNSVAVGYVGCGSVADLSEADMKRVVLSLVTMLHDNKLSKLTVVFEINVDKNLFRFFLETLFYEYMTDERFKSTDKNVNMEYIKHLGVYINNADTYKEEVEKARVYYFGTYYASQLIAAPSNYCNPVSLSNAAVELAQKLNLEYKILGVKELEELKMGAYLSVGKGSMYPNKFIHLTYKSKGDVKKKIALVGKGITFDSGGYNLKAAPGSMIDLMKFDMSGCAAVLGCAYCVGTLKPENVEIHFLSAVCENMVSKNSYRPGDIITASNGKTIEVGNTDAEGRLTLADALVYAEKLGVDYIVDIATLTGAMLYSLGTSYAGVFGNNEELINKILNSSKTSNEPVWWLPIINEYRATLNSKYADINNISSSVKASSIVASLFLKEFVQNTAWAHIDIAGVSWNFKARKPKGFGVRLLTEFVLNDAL
Nature of the experiment: P. falciparum M17LAP inhibitors, primary screen, biochemical, fluorogenic H-Leu-NHMec substrate, 1536-well (AID 1619). The format is functional.

Experiment [20] is described as follows: A549 cell cytotoxicity, dose response, cytotoxicity control, plate reader, cherry-pick, antagonist series (AID 743412). The format is functional, cell-based.
Experiment [21] can be described thus: cytotoxicity toward HT-29 cells – cell-based, CellTiter-Glo luminescence, IC50, dose response (AID 1117330). It counts as functional.
Experiment [22] in a line: HeLa 4N DNA content increase, dose response, cell-based, IC50 (AID 1117351). The format is functional.
Experiment [23] is described as follows: HeLa 2N DNA content increase, dose response, cell-based, IC50 (AID 1117349). The format is functional.
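Wherever EC50 is given: agonist potency from rise in intracellular calcium fluorescence.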

In the case of `O=C(CSc1n[nH]c2c3ccccc3nc-2n1)Nc1ccc2c(c1)OCO2`, the IC50 in experiment [1] was > 66 µM (inactive); in [2] it was > 66 µM (inactive); in [3], 83.3 µM (inactive); in [4] it was 1.57 µM (active); in [5] it was 4.39 µM (active).

Take `O=C(Cn1cnc([N+](=O)[O-])c1)NCCc1ccccc1`: in [6], the IC50 is > 29.9 µM (inactive). Besides, in experiment [7], the EC50 is > 29.9 µM (inactive).

On to `Cc1ccc(NC(=O)CN2C(=O)CN=C(c3ccccc3)c3cc(Cl)ccc32)cc1`, for which the figures for the IC50 in [3], in [4] and in [5] were 6.39 µM (active), 2.82 µM (active) and 6.78 µM (active), respectively.

Take `O=C(CCN1C(=O)/C(=C/c2ccccc2Cl)SC1=S)N1CCOCC1`: the CC50 in experiment [8] is 67.3 µM (active).

For the compound `Oc1ccccc1-c1nnc(COc2ccccc2)o1`, the IC50 in experiment [9] was 8.84 µM (active). In addition, the CC50 in experiment [10] was > 40 µM (active).

As for `COC(=O)c1ccc2nc(NC(=O)C(C)(C)C)sc2c1`, the IC50 in [11] is 24.1 µM (not active). Moreover, the AC50 was 5.77 µM (active) in [12], > 52 µM (inactive) in [13], 5.69 µM (active) in [14] and > 52 µM (inactive) in experiment [15].

Take `Cc1ccccc1Cn1ccc(NC(=O)c2nn(C)cc2[N+](=O)[O-])n1`: the CC50 in experiment [8] is 12.1 µM (active).

Turning to `Cc1ccc(/C=C/C(O)=C2/C(=O)N(C)C3(C)CC2c2ccccc2O3)cc1` (stereo unspecified), the values for the CC50 in experiment [8] and in [16] were 41 µM (active) and 15.4 µM (active), respectively. Moreover, the IC50 in [17] is > 64 µM (inactive).

As for `O=C1CCCN1CCCNc1ncnc2c1[nH]c1ccc(Cl)cc12`, the values for the IC50 in experiment [3], in [4] and in [5] were 83.3 µM (inactive), 4.36 µM (active) and 8.28 µM (active), respectively. Besides, the AC50 in experiment [18] is 0.943 µM (active).

As to `CCCN(CCC)CCCNC(=O)c1cc2cc3ccc(Cl)cc3nc2o1`, the CC50 in experiment [8] is > 100 µM (active).

Regarding `O=C(c1ccccc1)c1ccc2c(c1)N=C1CCCC(O)=C1C1c3ccccc3C(=O)N21` (stereo unspecified), the CC50 in experiment [10] was 28.9 µM (active).

Regarding `O=C(O)CCc1nnc(SCC(=O)Nc2cccc(C(F)(F)F)c2)nc1O`, in experiment [19], the IC50 was 6.64 µM (active).

On to `C[C@H]1CN([C@@H](C)CO)C(=O)Cc2cc(NS(=O)(=O)c3ccc(Cl)cc3)ccc2O[C@@H]1CN(C)Cc1ccccc1`, for which the AC50 in [12] is 31.5 µM (active); in experiment [13] it was 16.9 µM (active); in experiment [20] it was 13.1 µM (active); in experiment [14] it was 38.7 µM (active); in [15] it was 29.6 µM (active).

Consider `Clc1cccc(N/N=C(\Cc2nc3ccccc3[nH]2)c2ccccc2)c1`, for which the figures for the IC50 in [3], in experiment [4] and in experiment [5] were 62.2 µM (inactive), 3.09 µM (active) and 4.59 µM (active), respectively.

As for `NC(=O)c1cccc(-c2cc(Nc3ccc(OC(F)(F)F)cc3)ncn2)c1`, the CC50 in [10] is > 40 µM (active).

For `CC(C)=CCNc1ncnc2c1ncn2[C@@H]1O[C@H](CO)[C@@H](O)[C@H]1O` [RIBOPRINE], the IC50 is > 20 µM (inactive) in experiment [21], > 10 µM (inactive) in [22] and > 10 µM (inactive) in [23].

As usually defined, the EC50 is the concentration giving half of the maximal effect. As a reminder, the AC50 is the midpoint of the concentration-response curve, whichever way the signal moves.
